Test results published in patent publication US9999650B2, “Peptide and peptidomimetic inhibitors” (Ra Pharmaceuticals, Inc., priority 2012, dated 2018).
Numbered stars: 1 amine (or outer) side, 2 acyl side, 3 side chain; on linkers, the order of the positions; unused ones are H or OH. Bridge positions count the residues as written; N and C are the ends. Square brackets hold non-standard residues; d marks the D form. Ends that are not written are not given here. Peptide text beside a SMILES is read from it. * marks the point of attachment. Trp(5-Cl) = N[C@@H](Cc1c[nH]c2ccc(Cl)cc12)C(=O)O; Trp(7-aza) = N[C@@H](Cc1c[nH]c2ncccc12)C(=O)O; NMeW = CN[C@@H](Cc1c[nH]c2ccccc12)C(=O)O; Phe(3-Cl) = N[C@@H](Cc1cccc(Cl)c1)C(=O)O; X6 = Nc1ccc(CCC(N[*:1])C(=O)[*:2])cn1; mXylylene = c1cc(C[*:1])cc(C[*:2])c1; NMeY = CN[C@@H](Cc1ccc(O)cc1)C(=O)O; NMeT = CN[C@H](C(=O)O)[C@@H](C)O; X2 = O=C(Cc1cccc(C[*:2])c1)[*:1]; X8 = CC(C)(C)[C@H](N*)c1ccccn1; Chg = N[C@H](C(=O)O)C1CCCCC1; Pen = CC(C)(S)[C@H](N)C(=O)O; Phg = N[C@H](C(=O)O)c1ccccc1; Tle = CC(C)(C)[C@H](N)C(=O)O; NMeS = CN[C@@H](CO)C(=O)O; NMeA = CN[C@@H](C)C(=O)O; Nva = CCC[C@H](N)C(=O)O; Thp = NC1(C(=O)O)CCOCC1; Mpa = O=C(O)CCS; Sar = CNCC(=O)O

Molecular target: T1, human plasma kallikrein (Homo sapiens, UniProt P03952)
T1 construct: purchased Enzyme Research Laboratories HPKa 1303
T1 sequence (P03952 20-390 limits assumed): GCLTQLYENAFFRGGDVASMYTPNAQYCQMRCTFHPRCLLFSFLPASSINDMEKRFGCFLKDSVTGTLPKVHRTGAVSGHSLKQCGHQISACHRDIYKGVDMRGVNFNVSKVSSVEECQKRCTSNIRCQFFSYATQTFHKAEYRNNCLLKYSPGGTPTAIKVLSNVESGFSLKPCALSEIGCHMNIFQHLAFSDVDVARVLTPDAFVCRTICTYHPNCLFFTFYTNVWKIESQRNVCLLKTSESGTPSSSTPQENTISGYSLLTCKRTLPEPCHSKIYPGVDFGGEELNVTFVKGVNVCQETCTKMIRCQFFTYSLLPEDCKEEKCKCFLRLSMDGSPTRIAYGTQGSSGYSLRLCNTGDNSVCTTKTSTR
T1 sequence (P03952 391-638 limits assumed): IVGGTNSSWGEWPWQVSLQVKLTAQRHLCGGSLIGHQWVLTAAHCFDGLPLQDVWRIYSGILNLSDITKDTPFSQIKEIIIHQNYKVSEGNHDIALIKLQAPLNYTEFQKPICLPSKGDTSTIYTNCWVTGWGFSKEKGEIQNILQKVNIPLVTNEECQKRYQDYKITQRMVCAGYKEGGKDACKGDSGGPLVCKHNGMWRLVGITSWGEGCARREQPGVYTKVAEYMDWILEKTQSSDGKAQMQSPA
Test: Enzyme inhibition assay (fluorogenic substrate H-Pro-Phe-Arg-AMC)
Type: biochemical
Conditions: Kallikrein inhibitory activity; 1 nM activated human kallikrein, 500 μM H-Pro-Phe-Arg-AMC, 1 hour room temperature; read-out: Avg. IC50
Procedure: Activated human plasma kallikrein (Enzyme Research Laboratories, HPKa 1303) was reacted with H-Pro-Phe-Arg-7-amido-4-methylcoumarin (H-Pro-Pre-Arg-AMC) (a fluorogenic substrate for plasma as well as pancreatic and urinary kallikreins; Bachem I-1295) and candidate inhibitory peptides to determine the IC50 of the inhibitor.
Ten 8-fold serial dilutions of peptides (10 mM DMSO stocks) were performed in DMSO and then added to TCNB (50 mM Tris-HCl pH 7.2, 150 mM NaCl, 10 mM CaCl2, 0.05% Brij-35) and sonicated. 50 μL of the peptide dilutions were added to microtitre plates (96 well, black non-binding surface, Corning, 3650) and incubated for 5 minutes at room temperature with 4 nM activated human kallikrein (final concentration after addition of fluorogenic substrate: 1 nM). The samples were then incubated for 1 hour at room temperature with 2 mM H-Pro-Phe-Arg-AMC (final concentration 500 μM). Relative Fluorescence Units (RFU) were measured at excitation/emission 360 nm/460 nm by a SpectraMax M3.

Molecule | IC50
CC(C)C[C@H](NC(=O)[C@@H](NC(=O)[C@H](CCCNC(=N)N)NC(=O)[C@@H]1CSCc2cccc(c2)CSCCC(=O)N2CCC[C@H]2C(=O)N[C@@H](c2ccccc2)C(=O)N1)C(C)(C)C)C(=O)O [Compound R2202, [mXylyl(1,4)](des-NH2)C-P-Phg-CR-Tbg-L-OH] ([Mpa]P[Phg]CR[Tle]L-OH; linker 1-4 via mXylylene) | 0.0588 µM
CC(C)(C)[C@H](NC(=O)[C@H](CCCNC(=N)N)NC(=O)[C@@H]1COc2cccc(c2)OCCCC(=O)N2CCC[C@H]2C(=O)N[C@@H](C2CCCCC2)C(=O)N1)C(N)=O [Compound R2255] | > 25 µM
CC(C)(C)[C@H](NC(=O)[C@H](CCCNC(=N)N)NC(=O)[C@@H]1CCOc2cccc(c2)OCCCC(=O)N2CCC[C@H]2C(=O)N[C@@H](C2CCCCC2)C(=O)N1)C(N)=O [Compound R2256] | > 100 µM
CC(C)(C)[C@H](NC(=O)[C@H](Cc1c[nH]c2ccc(Cl)cc12)NC(=O)[C@@H]1CSCc2cccc(c2)CSCCC(=O)N2CCC[C@H]2C(=O)N[C@@H](c2ccccc2)C(=O)N1)C(N)=O [Compound R2209, [mXylyl(1,4)](des-NH2)C-P-Phg-C-5-C1-Trp-Tbg-NH2] ([Mpa]P[Phg]C[Trp(5-Cl)][Tle]-NH2; linker 1-4 via mXylylene) | > 75 µM
CC(C)(C)[C@H](NC(=O)[C@H](CCCNC(=N)N)NC(=O)[C@@H]1CCCn2cc(nn2)CCCCCC(=O)N2CCC[C@H]2C(=O)N[C@@H](C2CCCCC2)C(=O)N1)C(N)=O [Compound R2250] | > 100 µM
CC(=O)N[C@@H](CS)C(=O)N[C@@H](CC(N)=O)C(=O)N[C@@H](Cc1ccc(O)cc1)C(=O)N[C@@H](Cc1c[nH]c2ccccc12)C(=O)N[C@@H](CO)C(=O)N1CCC[C@H]1C(=O)N(C)[C@@H](Cc1c[nH]c2ccccc12)C(=O)N[C@H](C(=O)N[C@@H](C)C(=O)N[C@@H](CS)C(N)=O)[C@@H](C)O [Compound R2236, Ac-CNYWSP-nMeW-TAC-NH2] (Ac-CNYWSP[NMeW]TAC-NH2) | > 4.9 µM
CC(C)[C@H](NC(=O)C(CCc1ccc(N)nc1)NC(=O)[C@@H]1CSCc2cccc(c2)CSCCC(=O)N2CCC[C@H]2C(=O)N[C@@H](C2CCCCC2)C(=O)N1)C(N)=O (stereo partly shown) [Compound R2203, [mXylyl(1,4)](des-NH2)C-P-Chg-C-2-amino-4-(6-aminopyridin-3-yl)butanoic acid-V-NH2] ([Mpa]P[Chg]C[X6]V-NH2; linker 1-4 via mXylylene) | > 10 µM
Ac-ANYWSPWTAA-NH2 [Compound R2145, Ac-ANYWSPWTAA-NH2] | 0.0588 µM
CC[C@H](C)[C@@H]1NC(=O)[C@H](CO)NC(=O)[C@H](CCC(=O)O)NC(=O)[C@@H](NC(=O)[C@@H](N)CCSC)CSCc2cccc(c2)CSC[C@@H](C(=O)N[C@@H](CCCNC(=N)N)C(=O)N[C@@H](CCC(=O)O)C(N)=O)NC1=O [Compound R2087, [mXylyl(2,6)]MCESICRE-NH2] (H-MCESICRE-NH2; linker 2-6 via mXylylene) | > 16.6 µM
CC(=O)N[C@H]1CSCc2cccc(c2)CSC[C@@H](C(N)=O)NC(=O)[C@H](C)NC(=O)[C@H]([C@@H](C)O)N(C)C(=O)[C@H](Cc2c[nH]c3ccccc23)NC(=O)[C@@H]2CCCN2C(=O)[C@H](CO)N(C)C(=O)[C@H](Cc2c[nH]c3ccccc23)NC(=O)[C@H](Cc2ccc(O)cc2)N(C)C(=O)[C@H](CC(N)=O)NC1=O [Compound R2223, [mXylyl(1,10)]Ac-CN-nMeY-W-nMeS-PW-nMeT-AC-NH2] (Ac-CN[NMeY]W[NMeS]PW[NMeT]AC-NH2; linker 1-10 via mXylylene) | > 100 µM
CN1CC(=O)N2CCC[C@H]2C(=O)N[C@@H](C2CCCCC2)C(=O)N[C@H](C(=O)N[C@@H](CCCNC(=N)N)C(=O)N[C@H](C(N)=O)C(C)(C)C)CSCc2cccc(c2)CC1=O [Compound R2257] ([Sar]P[Chg]CR[Tle]-NH2; linker N-4 via X2) | 0.383 µM
CC(C)(C)[C@H](NC(=O)[C@H](CCCNC(=N)N)NC(=O)[C@@H]1CCc2cn(nn2)CCCCCC(=O)N2CCC[C@H]2C(=O)N[C@@H](C2CCCCC2)C(=O)N1)C(N)=O [Compound R2254] | > 100 µM
Ac-WSPWTECSA-NH2 [Compound R2119, Ac-WSPWTECSA-NH2] | > 100 µM

Other lines, results leading:

IC50 | Molecule
1.46 µM | CCC[C@H](N)C(=O)N[C@@H]1C(=O)N[C@@H](CCC(=O)O)C(=O)N[C@@H](CO)C(=O)N[C@@H]([C@@H](C)CC)C(=O)N[C@H](C(=O)N[C@@H](CCCNC(=N)N)C(=O)N[C@H](C(N)=O)C(C)C)CSCc2cccc(c2)CSC1(C)C [Compound R2031, [mXylyl(2,6)]Nvl-Pen-ESICRV-NH2] (H-[Nva][Pen]ESICRV-NH2; linker 2-6 via mXylylene)
0.0027 µM | CC(=O)N[C@H]1CSSC[C@@H](C(N)=O)NC(=O)[C@H](C)NC(=O)[C@H]([C@@H](C)O)NC(=O)[C@H](Cc2c[nH]c3ccccc23)NC(=O)[C@@H]2CCCN2C(=O)[C@H](CO)NC(=O)[C@H](Cc2c[nH]c3ccccc23)NC(=O)[C@H](Cc2ccc(O)cc2)NC(=O)[C@H](CC(N)=O)NC1=O [Compound R2142, [cyclo(1,10)]Ac-CNYWSPWTAC-NH2] (Ac-CNYWSPWTAC-NH2; disulfide 1-10)
0.0027 µM | CC(=O)N[C@@H](CS)C(=O)N[C@@H](CC(N)=O)C(=O)N[C@@H](Cc1ccc(O)cc1)C(=O)N[C@@H](Cc1c[nH]c2ccccc12)C(=O)N[C@@H](CO)C(=O)N1CCC[C@H]1C(=O)N[C@@H](Cc1c[nH]c2ccccc12)C(=O)N[C@H](C(=O)N(C)[C@@H](C)C(=O)N[C@@H](CS)C(N)=O)[C@@H](C)O [Compound R2234, Ac-CNYWSPWT-nMeA-C-NH2] (Ac-CNYWSPWT[NMeA]C-NH2)
0.0356 µM | CC(C)(C)[C@H](NC(=O)[C@H](CCCNC(=N)N)NC(=O)[C@@H]1CSCc2cccc(c2)CSCCC(=O)N2CCC[C@H]2C(=O)N[C@@H](C2CCCCC2)C(=O)N1)c1ccccn1 [Compound R2196, [mXylyl(1,4)](des-NH2)C-P-Chg-CR-(S)-2,2-dimethyl-1-(pyridin-2-yl)propan-1-amine] ([Mpa]P[Chg]CR-X8; linker 1-4 via mXylylene)
> 2.19 µM | C[C@@H]1NC(=O)C2(CCOCC2)NC(=O)CCSCc2cccc(c2)CSC[C@@H](C(=O)N[C@@H](Cc2c[nH]c3ncccc23)C(=O)N[C@H](C(N)=O)C(C)(C)C)NC(=O)[C@H](C2CCCCC2)NC1=O [Compound R2147, [mXylyl(1,5)](des-NH2)C-AcPyr-A-Chg-C-AzaTrp-Tbg-NH2] ([Mpa][Thp]A[Chg]C[Trp(7-aza)][Tle]-NH2; linker 1-5 via mXylylene)
> 17.3 µM | MCNYWSP-NH2 [Compound R2115, MCNYWSP-NH2]
> 50 µM | CC[C@@H](C)[C@@H]1NC(=O)[C@@H]2CCCN2C(=O)CCCCCC/C=C/C[C@@H](C(=O)N[C@@H](CCCNC(=N)N)C(=O)N[C@H](C(N)=O)C(C)C)NC1=O [Compound R2245]
> 75 µM | CC(C)(C)[C@H](NC(=O)[C@H](Cc1cccc(Cl)c1)NC(=O)[C@@H]1CSCc2cccc(c2)CSCCC(=O)N2CCC[C@H]2C(=O)N[C@@H](c2ccccc2)C(=O)N1)C(N)=O [Compound R2207, [mXylyl(1,4)](des-NH2)C-P-Phg-C-3-Cl-Phe-Tbg-NH2] ([Mpa]P[Phg]C[Phe(3-Cl)][Tle]-NH2; linker 1-4 via mXylylene)
> 100 µM | CC[C@@H](C)[C@@H]1NC(=O)CCCCC/C=C/C[C@@H](C(=O)N[C@@H](CCCNC(=N)N)C(=O)N[C@H](C(N)=O)C(C)C)NC1=O [Compound R2242]
